Assay results taken from ChEMBL document CHEMBL1201862, “PubChem BioAssay data set” (2004).
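Growth conditions: 96-well plates. Treatment: test compound, 48 hours, 5 concentrations. Analysis: linear interpolation between bracketing concentrations; unreached endpoints set to highest concentration. GI50: concentration for 50% inhibition of growth.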 Active and inactive are the calls of the source. No stated cut-off is given here; in the data, active = GI50 up to about 1.1 µM and inactive = higher.

Key:
Test in all cases: NCI-60 cell line screen, 48 h
[1] = tested on: A549
[2] = tested on: CAKI-1
[3] = tested on: CCRF-CEM
[4] = tested on: DU-145
[5] = tested on: HCT-15
[6] = tested on: HL-60
[7] = tested on: HOP-92
[8] = tested on: Hs-578T
[9] = tested on: NCI-H460
[10] = tested on: OVCAR-3
[11] = tested on: OVCAR-8
[12] = tested on: PC-3
[13] = tested on: SK-MEL-2
[14] = tested on: SNB-19
[15] = tested on: SNB-75
[16] = tested on: TK-10
[17] = tested on: Malme-3M
[18] = tested on: RXF 393
[19] = tested on: SR

| Compound | GI50 [1] | GI50 [2] | GI50 [3] | GI50 [4] | GI50 [5] [µM] | GI50 [6] | GI50 [7] | GI50 [8] | GI50 [9] | GI50 [10] | GI50 [11] | GI50 [12] | GI50 [13] | GI50 [14] | GI50 [15] | GI50 [16] | GI50 [17] | GI50 [18] | GI50 [19] |
| --- | --- | --- | --- | --- | --- | --- | --- | --- | --- | --- | --- | --- | --- | --- | --- | --- | --- | --- | --- |
| CCOC(=O)c1cc(=O)c2cccc3c2n1CCS3 | > 100 µM (inactive) | > 100 µM (inactive) | > 100 µM (inactive) | > 100 µM (inactive) | > 100 | > 100 µM (inactive) | > 100 µM (inactive) | > 100 µM (inactive) | 83.9 µM (inactive) | > 100 µM (inactive) | > 100 µM (inactive) | > 100 µM (inactive) | > 100 µM (inactive) | > 100 µM (inactive) | > 100 µM (inactive) | > 100 µM (inactive) |  |  |  |
| CCN(CC)CCN(/C(=N/c1ccccc1)N1CCCCC1)c1ccccc1 | 14.8 µM (inactive) | 27.8 µM (inactive) | 4.49 µM (inactive) | 20.2 µM (inactive) | 17.2 | 1.63 µM (inactive) |  | 10.3 µM (inactive) | 4.78 µM (inactive) | 2.88 µM (inactive) | 12.2 µM (inactive) | 2.72 µM (inactive) | 14.5 µM (inactive) | 17.8 µM (inactive) | > 10 µM (inactive) | 13.2 µM (inactive) | 15.5 µM (inactive) | 17.7 µM (inactive) | 3.4 µM (inactive) |
| CCCCCCCCCCCCCCCCOP(=O)([O-])OCC[N+](C)(C)C1CC(C)(C)N(O)C(C)(C)C1 | > 100 µM (inactive) | > 100 µM (inactive) |  | > 100 µM (inactive) | > 100 |  | > 100 µM (inactive) | > 100 µM (inactive) | > 100 µM (inactive) | > 100 µM (inactive) | > 100 µM (inactive) | > 100 µM (inactive) | > 100 µM (inactive) | > 100 µM (inactive) | > 100 µM (inactive) | > 100 µM (inactive) | > 100 µM (inactive) | > 100 µM (inactive) | > 100 µM (inactive) |
| O=C(O)CN1CCN2CCCCCCCCN(CC1)CCN(CC(=O)O)CC2 | > 100 µM (inactive) | > 100 µM (inactive) | > 100 µM (inactive) | > 100 µM (inactive) | > 100 | 5.08 µM (inactive) | > 100 µM (inactive) | > 100 µM (inactive) | > 100 µM (inactive) | > 100 µM (inactive) | > 100 µM (inactive) | > 100 µM (inactive) | > 100 µM (inactive) | > 100 µM (inactive) | 21.9 µM (inactive) | > 100 µM (inactive) | > 100 µM (inactive) |  |  |
| CSc1nc(NC2CC2)c2c(n1)Sc1nc3ccccc3n1N=C2 | 18.7 µM (inactive) | 34.9 µM (inactive) | > 100 µM (inactive) | 23.5 µM (inactive) | 28.4 |  | 21 µM (inactive) | 0.9 µM (active) | 25.1 µM (inactive) | 17.3 µM (inactive) | 10.1 µM (inactive) | 29.5 µM (inactive) | 30.3 µM (inactive) | 34.4 µM (inactive) |  | 25.1 µM (inactive) | 16.7 µM (inactive) |  | > 100 µM (inactive) |
| CC1CCOc2ccc(cc2)/C=N\c2ccc(cc2)CCc2ccc(cc2)/N=C\c2ccc(cc2)OCC1 | > 100 µM (inactive) | > 100 µM (inactive) | 29.8 µM (inactive) | > 100 µM (inactive) | > 100 |  | 60.5 µM (inactive) | > 100 µM (inactive) | > 100 µM (inactive) | > 100 µM (inactive) | > 100 µM (inactive) | > 100 µM (inactive) | > 100 µM (inactive) | > 100 µM (inactive) | 24.1 µM (inactive) |  | > 100 µM (inactive) | 35.6 µM (inactive) | > 100 µM (inactive) |
| N#Cc1cc(-c2nc3ccc(F)cc3s2)ccc1N | > 100 µM (inactive) | > 100 µM (inactive) | > 100 µM (inactive) | > 100 µM (inactive) | 87.7 | > 100 µM (inactive) | > 100 µM (inactive) | > 100 µM (inactive) | > 100 µM (inactive) | > 100 µM (inactive) | > 100 µM (inactive) | > 100 µM (inactive) |  | > 100 µM (inactive) | 14.7 µM (inactive) | > 100 µM (inactive) | 35.3 µM (inactive) | > 100 µM (inactive) |  |
| O=[N+]([O-])c1ccc(C2=NOC(c3ccccc3)N2C23CC4CC(CC(C4)C2)C3)cc1 (stereo not given) | 32.9 µM (inactive) | 1.36 µM (inactive) | 21.7 µM (inactive) | 40 µM (inactive) | 29.8 | 26.6 µM (inactive) |  | 19.5 µM (inactive) | 19.3 µM (inactive) | 23.5 µM (inactive) | 21.5 µM (inactive) | 20.5 µM (inactive) | 16.4 µM (inactive) | > 10 µM (inactive) | 21.9 µM (inactive) | 37.2 µM (inactive) | 25.1 µM (inactive) |  | > 10 µM (inactive) |
| CC(=O)OCC1OC(OC(C)=O)C(Nc2ncc(-c3ccc(C)cc3)s2)C(OC(C)=O)C1OC(C)=O (stereo not given) | 18.6 µM (inactive) | 16.9 µM (inactive) | 4.4 µM (inactive) | 31.3 µM (inactive) | 22.5 | > 10 µM (inactive) |  | 22.5 µM (inactive) | 18.5 µM (inactive) | 19.3 µM (inactive) | 24 µM (inactive) | 15.9 µM (inactive) | 22.6 µM (inactive) | 21.4 µM (inactive) | 15.5 µM (inactive) | 18.8 µM (inactive) | 21.2 µM (inactive) | 16.1 µM (inactive) | 26.4 µM (inactive) |
| O=C(NNC(=O)c1ccccc1O)c1cccs1 | 54.1 µM (inactive) | 79.4 µM (inactive) | > 100 µM (inactive) | > 100 µM (inactive) | 47.8 | 50 µM (inactive) |  | > 100 µM (inactive) | 56.9 µM (inactive) | 23.7 µM (inactive) | 32.1 µM (inactive) | 47.5 µM (inactive) | > 100 µM (inactive) | > 100 µM (inactive) | 28.3 µM (inactive) | > 100 µM (inactive) | 22.1 µM (inactive) | > 100 µM (inactive) | 71 µM (inactive) |
| CC(=O)N/N=C1\NC(=O)C[C@H]2[C@@H]3CC=C4C[C@@H](OC(C)=O)CC[C@]4(C)[C@H]3CC[C@]12C | 34.2 µM (inactive) | > 100 µM (inactive) | > 100 µM (inactive) | 74 µM (inactive) | 38.2 | > 100 µM (inactive) | 15.9 µM (inactive) | 17.8 µM (inactive) |  | > 100 µM (inactive) | 25.1 µM (inactive) | 29.9 µM (inactive) | 47.5 µM (inactive) | 17.4 µM (inactive) | 20.9 µM (inactive) | 17.1 µM (inactive) | 39.1 µM (inactive) |  |  |
| N#CC12C(=O)N3C(=NC(c4ccccc4)NC3c3ccccc3)C1(C#N)C(c1ccccc1)NC1=C2CCCC1 (stereo not given) | > 100 µM (inactive) | > 100 µM (inactive) | 30.3 µM (inactive) | > 100 µM (inactive) | > 100 | > 100 µM (inactive) | > 100 µM (inactive) | > 100 µM (inactive) | > 100 µM (inactive) | > 100 µM (inactive) | > 100 µM (inactive) | > 100 µM (inactive) | > 100 µM (inactive) | > 100 µM (inactive) | > 100 µM (inactive) | > 100 µM (inactive) | > 100 µM (inactive) | > 100 µM (inactive) |  |
